Results on eleven molecules are retold here after US20240246984A1, “HETEROCYCLIC JAK INHIBITOR” (BEIJING INNOCARE PHARMA TECH CO., LTD., priority 2020, published 2024).

Where two headings read alike, the source gives them in different places.

For data set [1], the system named is IL-12-induced IFN-γ secretion in NK92 cells. Kind of data set: Inhibition of IL-12-induced IFN-γ secretion in NK92 cells (ELISA). The class given is cell-based. Particulars: Homo sapiens, IL-12 stimulation, 24 hours, read-out: IC50 (NK92IL12/IFN-γ). Here is the method:
The effect of the compounds of the present invention on IFN-γ secretion in IL-12-induced NK92 cells was evaluated by an enzyme-linked immunosorbent assay (ELISA).
The assay principle was generally described below: IL-12R was mainly expressed in activated T-cells, NK cells (NK92 was an NK cell line), DC cells, and B-cells. When binding to IL-12, it activated the JAK2/TYK2 signal transduction pathway within NK cells and activated T lymphocytes, thereby inducing secretion of IFN-γ.
The compound was dissolved to 2.5 mM in DMSO, followed by a serial 4-fold dilution with DMSO to a minimum concentration of 0.31 μM. Each concentration was further diluted 50-fold with an FBS-free MEMα medium (Thermofisher. 12561-056).
NK92 cells (Nanjing Cobioer, CBP60980) were cultured in a complete MEMα medium containing 12.5% FBS (Ausbian, VS500T), 12.5% horse serum (Thermofisher, 16050-122), 0.02 mM folic acid (Sigma, F8758), 0.2 mM inositol (Sigma, 17850), 0.55 mM β-mercaptoethanol (Thermofish, 21985-023), 200 U/mL IL-2 (R&D Systems, 202-1L), and 100 U/mL penicillin-streptomycin mixed liquor (ThermoFisher, 15140122). When covering 80-90% of the culture container surface, the cells were dispersed and plated on a 96-well plate (ThermoFisher, 167425) with 100,000 cells per well (80 μL of the complete MEMα medium without IL-2). The 96-well plate was then incubated overnight in a 37° C., 5% CO2 incubator.
After overnight incubation, 10 μL of the compound and 10 μL of 50 ng/ml IL-12 (R &D Systems, 219-1L) were added to each well and mixed gently, and the 96-well plate was incubated in the 37° C., 5% CO2 incubator for additional 24 hours. The plate was centrifuged at 800 rpm for 10 minutes at room temperature and 50 μL of the supernatant from each well was transferred to another 96-well plate (Sigma, CLS3695) coated with anti-IFN-γ antibody. The amount of IFN-γ secretion was detected following the instruction from the Human IFN-γ DuoSet ELISA assay kit (R & D Systems, DY285B). In this assay, the group in which IL-12 and the test compound were replaced with the MEMα medium was the non-stimulated control group (100% inhibition), and the group with IL-12 and 0.2% DMSO was the stimulated control group (0% inhibition). The compound inhibition curve was plotted using XLfit software and the IC50 of its inhibition was calculated.
(In an ELISA, binding on a coated surface is turned into a signal by an enzyme label.)

The target in data set [2] is human recombinant JAK2 protein (Homo sapiens, UniProt O60674). Kind of data set: JAK2 activity inhibition assay (HTRF kinase detection). Format: biochemical. Particulars: 2.5 μM ATP substrate solution. The procedure: The effect of the compounds of the present invention on the activity of JAK2 was assessed by using an in vitro kinase detection assay.
The enzymatic activity of JAK2 was assessed by detecting the substrate phosphorylation level in a kinase reaction with a homogeneous time-resolved fluorescence (HTRF) kinase detection kit (Cisbio, 62TK0PEC). A reaction buffer contained an enzyme buffer (1×), 5 mM MgCl2, 1 mM DTT and 0.01% Brij35 from the kit; a human recombinant JAK2 protein (Carna Biosciences, 08-045) was diluted to a kinase reaction solution of 0.15 ng/μL with the reaction buffer; a substrate reaction solution contained 2.5 μM ATP and a biotin-labeled tyrosine kinase substrate diluted to 0.25 μM with the reaction buffer; a detection buffer contained 0.1 ng/μL Eu^3+ labeled cage antibody (Cisbio, 61T66KLB) and 12.5 nM streptavidin-labeled XL665 (Cisbio, 610SAXLB) in the reaction buffer; the compound was dissolved to 10 μM in DMSO, followed by a serial 4-fold dilution with DMSO to a minimum concentration of 0.061 nM. Each concentration was further diluted 40-fold with the reaction buffer. To a 384-well assay plate (Corning, 3674) were added 4 μL of the compound solutions having a series of concentrations and 2 μL of JAK2 kinase reaction solutions. After being mixed evenly, the mixtures were incubated at room temperature for 15 minutes, and then 4 μL of the substrate reaction solutions were added. The reaction mixtures were incubated at room temperature for 30 minutes. Then the reaction mixtures were added with 10 μL of detection solutions, mixed evenly, and allowed to stand at room temperature for 30 minutes. An Envision plate reader (Perkin Elmer) was then used to measure the progress of the reaction at wavelengths of 620 nm and 665 nm. The signal value (absorbance at 665 nm/absorbance at 620 nm) was positively correlated with the degree of substrate phosphorylation, therefore the kinase activity of JAK2 was detected. In this assay, the group without JAK2 kinase protein was the 100% inhibition group, and the group with JAK2 kinase protein but without the test compound was the 0% inhibition group. The compound inhibition curve was plotted using XLfit software and the IC50 of its inhibition was calculated.
A general note: TR-FRET usually uses a lanthanide donor and a delayed reading to cut background.

Data set [3] deals with human recombinant TYK2 protein (Homo sapiens, UniProt P29597). Kind of data set: TYK2 activity inhibition assay (HTRF kinase detection). Format: biochemical. Conditions: 11.25 μM ATP substrate solution. The procedure:
The effect of the compounds of the present invention on the activity of TYK2 was assessed by using an in vitro kinase detection assay.
The enzymatic activity of TYK2 was assessed by detecting the substrate phosphorylation level in a kinase reaction with a homogeneous time-resolved fluorescence (HTRF) kinase detection kit (Cisbio, 62TK0PEC). A reaction buffer contained an enzyme buffer (1×), 5 mM MgCl2, 1 mM DTT and 0.01% Brij35 from the kit; a human recombinant TYK2 protein (Carna Biosciences, 08-147) was diluted to a kinase reaction solution of 0.25 ng/μL with the reaction buffer; a substrate reaction solution contained 11.25 μM ATP and a biotin-labeled tyrosine kinase substrate diluted to 0.5 μM with the reaction buffer; a detection buffer contained 0.1 ng/μL Eu^3+ labeled cage antibody (Cisbio, 61T66KLB) and 25 nM streptavidin-labeled XL665 (Cisbio, 610SAXLB) in the reaction buffer; the compound was dissolved to 10 μM in DMSO, followed by a serial 4-fold dilution with DMSO to a minimum concentration of 0.061 nM. Each concentration was further diluted 40-fold with the reaction buffer. To a 384-well assay plate (Corning, 3674) were added 4 μL of the compound solutions having a series of concentrations and 2 μL of kinase reaction solutions. After being mixed evenly, the mixtures were incubated at room temperature for 15 minutes, and then 4 μL of the substrate reaction solutions were added. The reaction mixtures were incubated at room temperature for 40 minutes. Then the reaction mixtures were added with 10 μL of detection solutions, mixed evenly, and allowed to stand at room temperature for 30 minutes. An Envision plate reader (Perkin Elmer) was then used to measure the progress of the reaction at wavelengths of 620 nm and 665 nm. The signal value (absorbance at 665 nm/absorbance at 620 nm) was positively correlated with the degree of substrate phosphorylation, therefore the kinase activity of TYK2 was detected. In this assay, the group without TYK2 kinase protein was the 100% inhibition group, and the group with TYK2 kinase protein but without the test compound was the 0% inhibition group. The compound inhibition curve was plotted using XLfit software and the IC50 of its inhibition was calculated.

Data set [4] can be described thus: Pharmacokinetic assay in mice (plasma and colon exposure). Format: in vivo. Particulars: fed female C57 mice, 25 mg/kg PO, 4 hours after dosing; for concentration at 4 h: mouse. The procedure:
Test compounds were formulated into a 5 mg/mL dosing sample (suspension or solution) in a 20% HP-β-CD vehicle.
3 fed female C57 mice were each dosed 5 mL/kg by gavage (PO) at a dose of 25 mg/kg. Blood samples were collected 4 hours after dosing, and then animals were killed by CO2. Colons near the end of the rectum, approximately 4-6 cm in length, were dissected, rinsed with cold saline, blotted dry with absorbent paper, and weighed.
Concentrations of the test compounds in the plasma and intestinal homogenate sample were quantified by LC-MS/MS using an API-4500 mass spectrometer with a plasma limit of quantitation (LOQ) of 1 ng/mL.

[5] abbreviates: colon homogenate, read-out: Colon exposure.

In the case of `CN1CCN(C(=O)c2ccc(Nc3nc(-c4c(F)cccc4F)n4cc[nH]c(=O)c34)cc2)CC1` [Compound 29, 3-(2,6-difluorophenyl)-1-((4-(4-methylpiperazine-1-carbonyl)phenyl)amino)imidazo[1,5-a]pyrazin-8(7H)-one], the IC50 in data set [1] worked out at 75 nM; in data set [2] it was 0.7 nM; in data set [3] it was 0.1 nM. Further, the concentration at 4 h in data set [4] (setting [5]) is 3920 ng/g; in data set [4] (plasma, LOQ 1 ng/mL, read-out: Plasma exposure) it was 75 ng/mL.
With `O=C(c1ccc(Nc2nc(-c3c(F)cccc3F)n3cc[nH]c(=O)c23)cc1)N1CCNCC1` [Compound 30, 3-(2,6-difluorophenyl)-1-((4-(piperazine-1-carbonyl)phenyl)amino)imidazo[1,5-a]pyrazin-8(7H)-one], the IC50 was determined as 318 nM in data set [1], 0.8 nM in data set [2] and 0.1 nM in data set [3]. For the same molecule, the Plasma exposure entry in data set [4] (plasma, LOQ 1 ng/mL) is “BLOQ”. In data set [4] (setting [5]), the concentration at 4 h came out at 12200 ng/g.
As for `Cn1cc(Nc2nc(-c3c(F)cccc3Cl)n3cc[nH]c(=O)c23)cn1` [Compound 26, 3-(2-chloro-6-fluorophenyl)-1-((1-methyl-1H-pyrazol-4-yl)amino)imidazo[1,5-a]pyrazin-8(7H)-one], the IC50 in data set [1] was 149 nM; in data set [2], 2.9 nM; in data set [3] it was 0.7 nM.
For `CC(C)(C(=O)O)c1ccc(Nc2nc(-c3c(F)cccc3F)n3cc[nH]c(=O)c23)cc1` [Compound 40, 2-(4-((3-(2,6-difluorophenyl)-8-oxo-7,8-dihydroimidazo[1,5-a]pyrazin-1-yl)amino)phenyl)-2-methylpropanoic acid], in that order: 406 nM, 2.8 nM and 0.4 nM.
The matching figures for `O=C1NCCn2c(-c3c(F)cccc3F)nc(Nc3ccc(N4CCOCC4)cc3)c21` [Compound 10, 3-(2,6-difluorophenyl)-1-((4-morpholinophenyl)amino)-6,7-dihydroimidazo[1,5-a]pyrazin-8(5H)-one]: 122 nM, 4.4 nM and 0.4 nM.
For `O=C(c1ccc(Nc2nc(-c3c(F)cccc3Cl)n3cc[nH]c(=O)c23)cc1)N1CCOCC1` [Compound 3, 3-(2-chloro-6-fluorophenyl)-1-((4-(morpholine-4-carbonyl)phenyl)amino)imidazo[1,5-a]pyrazin-8(7H)-one], in that order: 66 nM, 0.4 nM and 0.1 nM.
Take `O=C(O)c1ccc(Nc2nc(-c3c(F)cccc3F)n3cc[nH]c(=O)c23)cc1` [Compound 39, 4-((3-(2,6-difluorophenyl)-8-oxo-7,8-dihydroimidazo[1,5-a]pyrazin-1-yl)amino)benzoic acid]: the IC50 in data set [1] came to 4100 nM; in data set [2] it was 4.5 nM; in data set [3] it was 0.5 nM.
As to `CN1CCN(C(=O)C(C)(C)c2ccc(Nc3nc(-c4c(F)cccc4F)n4cc[nH]c(=O)c34)cc2)CC1` [Compound 35, 3-(2,6-difluorophenyl)-1-((4-(2-methyl-1-(4-methylpiperazin-1-yl)-1-oxopropan-2-yl)phenyl)amino)imidazo[1,5-a]pyrazin-8(7H)-one], the IC50 stood at 191 nM in data set [1], 0.6 nM in data set [2] and 0.4 nM in data set [3].
The matching figures for `O=C1NCCn2c(-c3c(F)cccc3F)nc(Nc3ccc(CC(=O)N4CCOCC4)cc3)c21` [Compound 16, 3-(2,6-difluorophenyl)-1-((4-(2-morpholino-2-oxoethyl)phenyl)amino)-6,7-dihydroimidazo[1,5-a]pyrazin-8(5H)-one]: 1440 nM, 4.9 nM and 2 nM.
`CN1CCN(C(=O)c2ccc(Nc3nc(-c4c(F)cccc4Cl)n4cc[nH]c(=O)c34)cc2)CC1` [Compound 31, 3-(2-chloro-6-fluorophenyl)-1-((4-(4-methylpiperazine-1-carbonyl)phenyl)amino)imidazo[1,5-a]pyrazin-8(7H)-one]: the IC50 in data set [1] was 56 nM; in data set [2] it was 0.6 nM; in data set [3] it was 0.1 nM.
The matching figures for `CC(C)(C(=O)N1CCOCC1)c1ccc(Nc2nc(-c3c(F)cccc3F)n3cc[nH]c(=O)c23)cc1` [Compound 17, 3-(2,6-difluorophenyl)-1-((4-(2-methyl-1-morpholino-1-oxopropan-2-yl)phenyl)amino)imidazo[1,5-a]pyrazin-8(7H)-one]: 520 nM, 0.3 nM and 0.1 nM.
